Key:
Assay in all cases: karenitecin treatment of PDX model
Type in all cases: in vivo
Design in all cases: key to Response: responder: responded to karenitecin treatment (AUC<0.5 and TGI>0.8); non_responder: did not respond to karenitecin treatment (AUC>0.5 and TGI<0.6)
Conditions in all cases: karenitecin treatment for two weeks
[1] = tested on: PDX LU1215
Protocol: (§1) A cohort of 48 PDX models in 8 cancers were used in this study. Those models were subject to karenitecin treatment for two weeks. Both tumor growth inhibition (TGI) and median AUC (area under curve) ratio, a newly developed metric to evaluate drug efficacy, were calculated (Table 1). Those models can be divided into two categories according to TGI and median AUC ratio.

[2] = tested on: PDX LU2071
Protocol: as §1

[3] = tested on: PDX GA3055
Protocol: as §1

[4] = tested on: PDX PA0527
Protocol: as §1

[5] = tested on: PDX ES0110
Protocol: as §1

[6] = tested on: PDX OV0276
Protocol: as §1

[7] = tested on: PDX CR0126
Protocol: as §1

[8] = tested on: PDX LU1542
Protocol: as §1

[9] = tested on: PDX OV0243
Protocol: as §1

[10] = tested on: PDX GA3102
Protocol: as §1

[11] = tested on: PDX LU1144
Protocol: as §1

[12] = tested on: PDX GA0098
Protocol: as §1

[13] = tested on: PDX CR2545
Protocol: as §1

[14] = tested on: PDX CR1451
Protocol: as §1

[15] = tested on: PDX LU0330
Protocol: as §1

[16] = tested on: PDX ES0176
Protocol: as §1

[17] = tested on: PDX PA1301
Protocol: as §1

[18] = tested on: PDX LU1155
Protocol: as §1

CC[C@@]1(O)C(=O)OCc2c1cc1n(c2=O)Cc2c-1nc1ccccc1c2CC[Si](C)(C)C [karenitecin]
Median AUC ratio [1]: 0.232
Response [1]: responder
TGI [1]: 1.006
Median AUC ratio [2]: 0.037
Response [2]: responder
TGI [2]: 1.099
Median AUC ratio [3]: −0.072
Response [3]: responder
TGI [3]: 1.215
Median AUC ratio [4]: 0.316
Response [4]: responder
TGI [4]: 0.996
Median AUC ratio [5]: 0.344
Response [5]: responder
TGI [5]: 1.010
Median AUC ratio [6]: 0.314
Response [6]: responder
TGI [6]: 1.103
Median AUC ratio [7]: 1.399
Response [7]: non_responder
TGI [7]: −0.308
Median AUC ratio [8]: −3.610
Response [8]: responder
TGI [8]: 1.195
Median AUC ratio [9]: −1.983
Response [9]: responder
TGI [9]: 1.449
Median AUC ratio [10]: 0.084
Response [10]: responder
TGI [10]: 1.061
Median AUC ratio [11]: 1.056
Response [11]: non_responder
TGI [11]: 0.378
Median AUC ratio [12]: 0.512
Response [12]: non_responder
TGI [12]: 0.482
Median AUC ratio [13]: 0.597
Response [13]: non_responder
TGI [13]: 0.379
Median AUC ratio [14]: 0.069
Response [14]: responder
TGI [14]: 1.173
Median AUC ratio [15]: 1.094
Response [15]: non_responder
TGI [15]: 0.000
Median AUC ratio [16]: 1.242
Response [16]: non_responder
TGI [16]: −0.177
Median AUC ratio [17]: 1.038
Response [17]: non_responder
TGI [17]: 0.285
Median AUC ratio [18]: 0.406
Response [18]: responder
TGI [18]: 0.991

Reference: patent US11339447B2, “System and method for determining Kareniticin sensitivity on cancer” (CROWN BIOSCIENCE, INC. (TAICANG), priority 2017, dated 2022)
